The nature of assay [1]: Inhibition of complement component C3c.
Assay [2] can be described thus: Binding affinity to complement component C3c in human plasma. Format: cell-free.

`CC[C@H](C)[C@H](N)C(=O)N[C@H]1CSSC[C@@H](C(=O)N[C@H](C(N)=O)[C@@H](C)O)NC(=O)[C@H](CCCNC(=N)N)NC(=O)[C@H](Cc2cnc[nH]2)NC(=O)[C@H](Cc2cnc[nH]2)NC(=O)CNC(=O)[C@H](Cc2c[nH]c3ccccc23)NC(=O)[C@H](CC(=O)O)NC(=O)[C@H](CCC(N)=O)NC(=O)[C@H](C(C)C)NC(=O)[C@H](C(C)C)NC1=O` [COMPSTATIN] displayed an IC50 in assay [1] of 12 µM. The Kd in assay [2] amounted to 0.39 µM.
